Source: patent US4141986A, “Antibiotics 890A2 and 890A5” (Merck & Co., Inc., priority 1977, dated 1979)

What was measured:
Type in all cases: cell-based
[1] = tested on: Staphylococcus aureus ATCC 6538 P; experiment: In vitro antibacterial spectrum profile, agar diffusion
[2] = tested on: Alcaligenes faecalis ATCC 213; experiment: as above; conditions: read-out: Inhib. Zone Diam.
[3] = tested on: Streptococcus agalactiae MB-2875; experiment: as above; conditions: read-out: Inhib. Zone Diam.
[4] = tested on: Proteus vulgaris (episome) MB-2112; experiment: as above; conditions: read-out: Inhib. Zone Diam.
Procedure: (§1) The test to determine the antibiotic spectrum profile of antibiotic 890A2 is carried out by saturating 1/4 inch diameter paper discs in a solution of antibiotic 890A2 in 5% methanol at a concentration of 5 μg./ml.; air drying the saturated paper discs and placing them on the surface of 100 × 15 mm. petri plates containing 5 ml. of seeded nutrient agar plus 0.2% yeast extract.
(§2) The test to determine the antibiotic spectrum profile of antibiotic 890A5 is carried out by application of a 0.015 ml. droplet of a 33 μg./ml. aqueous solution of the antibiotic on the surface of a 100 × 15 mm. petri plate containing 5 ml. of seeded nutrient agar plus 0.2% yeast extract.
^a this episome confers resistance to tetracycline, chloramphenicol,
kanamycin and streptomycin at a concentration of 20 μg./ml. and
neomycin at a concentration of 25 μg./ml. and sulfa drugs.

[5] = tested on: Vibrio percolans ATCC 8461; experiment: Bioassay I, agar plate disc-diffusion potency per HAEA308 unit; conditions: Vibrio percolans ATCC 8461, Bioassay I
Procedure: An agar plate disc-diffusion method is employed using either Vibrio percolans ATCC 8461 or Salmonella gallinarum MB-1287 as tester organism. A purified sample of antibiotic 890A1 is used as standard. Antibiotic 890A1 is prepared according to the procedure set forth in Example 5.
Plates containing Vibrio percolans ATCC 8461 are prepared as follows:
A lyophilized culture of Vibrio percolans ATCC 8461 is suspended in 15 ml. of a sterilized medium containing 8 g./liter of Difco Nutrient Broth and 2 g./liter of yeast extract in distilled water "nutrient broth-yeast extract" (herein after designated NBYE). The culture is incubated overnight on a rotary shaker at 28° C. […]
Filter paper discs of one-half inch diameter are dipped into the solution to be assayed, and are placed on the agar. […] The diameter of the zone of inhibition is measured after appropriate incubation (9-18 hours at 37° C. for Salmonella gallinarum MB-1287 or 12-24 hours at 25° C. for Vibrio percolans ATCC 8461.) If necessary, dilutions of the solutions to be assayed are made in 0.05M potassium phosphate buffer, pH 7.4 "potassium phosphate buffer" (hereinafter referred to as KPB), or in deionized water.
Calculations of potencies proceed as follows: a slope is determined by measuring the zone diameters of a solution of antibiotic 890A2 or 890A5 and of a four-fold dilution (in KPB) of this solution. […]

[6] = tested on: Difco penicillinase and lactamase(s) produced by a cephalosporin C-resistant strain of Vibrio percolans (MB-2566); experiment: Inactivation by penicillinase and lactamase(s), from the antibiotic spectra; conditions: judged from the spectra of Table III
Procedure: as §1, §2
The spectra of antibiotic 890A2 and 890A5 are quite similar, except for the resistance of 890A5 to inactivation by Difco penicillinase and by lactamase(s) produced by a cephalosporin C-resistant strain of Vibrio percolans (MB-2566).

| Compound | zone of inhibition at 5 µg/mL ([1]; ATCC6538, read-out: Inhib. Zone Diam.) [mm] | zone of inhibition at 5 µg/mL ([2]; ATCC213, 890A2 5 μg./ml., 1/4 inch paper disc) [mm] | zone of inhibition at 5 µg/mL ([3]; MB2875, 890A2 5 μg./ml., 1/4 inch paper disc) [mm] | zone of inhibition at 5 µg/mL ([4]; 890A2 5 μg./ml., 1/4 inch paper disc) [mm] | zone of inhibition at 33 µg/mL ([1]; ATCC6538, 890A5 33 μg./ml., 0.015 ml. droplet, read-out: Inhib. Zone Diam.) [mm] | zone of inhibition at 33 µg/mL ([2]; ATCC213, 890A5 33 μg./ml., 0.015 ml. droplet) [mm] | zone of inhibition at 33 µg/mL ([3]; MB2875, 890A5 33 μg./ml., 0.015 ml. droplet) [mm] | zone of inhibition at 33 µg/mL ([4]; 890A5 33 μg./ml., 0.015 ml. droplet) [mm] | antibiotic potency (ratio of bioactivity to HAEA308) [5] [units per HAEA308 unit] | inactivation by Difco penicillinase and by lactamase(s) of Vibrio percolans MB-2566 [6] |
| --- | --- | --- | --- | --- | --- | --- | --- | --- | --- | --- |
| CC(=O)NC=CSC1=C(C(=O)O)N2C(=O)C(C(C)O)C2C1 (stereo not shown) [Antibiotic 890A2] | 34 | 34 | 32 | 33 | – | – | – | – | – | – |
| CC(=O)NC=CSC1=C(C(=O)O)N2C(=O)C(C(C)O)C2C1 (stereo not shown) [Antibiotic 890A5] | – | – | – | – | 34 | 25 | 27 | 23 | 12 | resistance |
